Patent publication US6855828B1, “Detection of hypoxia” (The Trustees of the University of Pennsylvania, priority 1992, dated 2005)
Several values for one entry are separate records, joined by “and”; a condition that tells them apart may be missing. Equal entries are not always repeated.

How the values were obtained:
[1] = Tissue distribution of [^18F]-EF1 in rats bearing tumors (γ-counter); format: in vivo; settings: tumor-bearing rat, I/V
Description: (§1) Q7 cells were obtained from the American Type Culture Collection (ATCC). They were maintained in exponential growth by transfers at 3.5 day intervals with standard culture conditions. Growth medium was Eagle's MEM supplemented with 15% fetal calf serum and standard penicillin and streptomycin.
(§2) All animal studies conformed to the regulations of the University of Pennsylvania Institutional Animal Care and Use Committee. Male Buffalo rats (Harlan Sprague Dawley, Indianapolis, Ind., USA) were used for all studies. Donor tumors were created by injecting 1 million Q7 cells subcutaneously into the thigh region. The average growth time to achieve a 1 cm diameter tumor was 21 days. Tumors of less than 2 g were used in the experiments.
(§3) To measure the distribution of radioactive drug in various organs and tissues, the solution of [^18F]-EF1 in saline buffer was injected I/V into 2 male Buffalo rats. Animals was sacrificed and the samples of tissues were collected and weighted. The radioactivity of samples was measured by γ-counter and corrected for weight and the time of decay.
In particular, note that the density of radioactive counts closely parallels the findings from the image analysis. Results from 2 animals, are shown. PET and immunohistochemical images from both animals were very similar (data not shown)

[2] = Distribution of [^18F]-EF1 in murine organs and tissues; format: in vivo, mice; set-up: Distribution in murine tissues, Kidney / Distribution in murine tissues, Heart / Distribution in murine tissues, Muscle / Distribution in murine tissues, Liver / Distribution in murine tissues, Spleen: unit not given beside the values
Description: as §3
The distribution of radioactive drug in various murine organs and tissues was measured similarly to the previous example. [^18F]-EF1 was injected into 4 mice, which were sacrificed after 5 and 90 minutes and the radioactivity of tissues was measured.

Morris 7777 hepatoma = experiment: PET image of tumor-bearing rat treated with [^18F]-EF1; format: in vivo; settings: 150 minutes post injection
Description: FIG. 4 illustrates a PET image of a tumor-bearing rat treated with 18-F-labeled EF1 (2-(2-nitro-1H-imidazol-1-yl)-N-3-monofluoropropyl) acetamide, 150 minutes post injection.
as §1, §2
It is believed that this is the first PET image of a rodent tumor where substantial image modifications to eliminate gut clearance effects have not been necessary.

[3] = tested on: existing antibodies (to EF5 and EF3); experiment: Affinity of existing antibodies towards EF1; format: binding

O=C(Cn1ccnc1[N+](=O)[O-])NCCCF [[^18F]-EF1, (2-(2-nitro-1H-imidazol-1-yl)-N-3-monofluoropropyl) acetamide]
Tissue distribution, Brain ([1]; 3 hrs, Brain): 0.13 % dose/gram and 0.11 % dose/gram
Tissue distribution, Kidney ([1]; 3 hrs, Kidney): 0.54 % dose/gram and 0.29 % dose/gram
Tissue distribution, Liver ([1]; 3 hrs, Liver): 0.25 % dose/gram and 0.21 % dose/gram
Tissue distribution, Muscle ([1]; 3 hrs): 0.17 % dose/gram and 0.13 % dose/gram
Tissue distribution, Spleen ([1]; 3 hrs, Spleen): 0.17 % dose/gram and 0.13 % dose/gram
Tissue distribution, Tumor ([1]; 3 hrs): 0.34 % dose/gram and 0.28 % dose/gram
Tissue distribution, Muscle ([1]; 4 hrs): 0.23 % dose/gram and 0.13 % dose/gram
Tissue distribution, Tumor ([1]; 4 hrs): 0.64 % dose/gram and 0.44 % dose/gram
Density of label in mouse-brain tissue compared with other organs ([2]; early times): substantially lower densities
Distribution in murine tissues, Blood ([2]; mouse, 5 minutes): 0.041 and 0.038
Distribution in murine tissues, Brain ([2]; mouse, 5 minutes): 0.004
Distribution in murine tissues, Cecum ([2]; mouse, 5 minutes, Cecum): 0.022 and 0.023
Distribution in murine tissues, Heart ([2]; mouse, 5 minutes): 0.041 and 0.052
Distribution in murine tissues, Intestine ([2]; mouse, 5 minutes): 0.037 and 0.039
Distribution in murine tissues, Kidney ([2]; mouse, 5 minutes): 0.072 and 0.044
Distribution in murine tissues, Liver ([2]; mouse, 5 minutes): 0.064 and 0.050
Distribution in murine tissues, Lung ([2]; mouse, 5 minutes): 0.052 and 0.046
Distribution in murine tissues, Muscle ([2]; mouse, 5 minutes): 0.038 and 0.031
Distribution in murine tissues, Spleen ([2]; mouse, 5 minutes): 0.034 and 0.035
Distribution in murine tissues, Stomach ([2]; mouse, 5 minutes): 0.013
Distribution in murine tissues, Tibia ([2]; mouse, 5 minutes): 0.045 and 0.042
Distribution in murine tissues, Urine ([2]; mouse, 5 minutes): 0.045
Distribution in murine tissues, Blood ([2]; mouse, 90 minutes): 0.005 and 0.007
Distribution in murine tissues, Brain ([2]; mouse, 90 minutes): 0.003 and 0.005
Distribution in murine tissues, Esophagus ([2]; mouse, 90 minutes, Esophagus): 0.012
Distribution in murine tissues, Heart ([2]; mouse, 90 minutes): 0.006 and 0.009
Distribution in murine tissues, Intestine ([2]; mouse, 90 minutes): 0.014 and 0.012
Distribution in murine tissues, Kidney ([2]; mouse, 90 minutes): 0.011 and 0.015
Distribution in murine tissues, Liver ([2]; mouse, 90 minutes): 0.016 and 0.020
Distribution in murine tissues, Lung ([2]; mouse, 90 minutes): 0.007 and 0.005
Distribution in murine tissues, Muscle ([2]; mouse, 90 minutes): 0.005 and 0.009
Distribution in murine tissues, Spleen ([2]; mouse, 90 minutes): 0.005 and 0.007
Distribution in murine tissues, Stomach ([2]; mouse, 90 minutes): 0.007 and 0.009
Distribution in murine tissues, Tail ([2]; mouse, 90 minutes, Tail): 0.071 and 0.051
Distribution in murine tissues, Tibia ([2]; mouse, 90 minutes): 0.079 and 0.064
Distribution in murine tissues, Urine ([2]; mouse, 90 minutes): 0.595 and 0.786
Visibility of tumor in PET image (Morris 7777 hepatoma): clearly visible

O=C(Cn1ccnc1[N+](=O)[O-])NCCCF [EF1, (2-(2-nitro-1H-imidazol-1-yl)-N-3-monofluoropropyl) acetamide]
Affinity of existing antibodies (to EF5 and EF3) towards compound [3]: only a modest affinity
